Read-outs that look alike come from different tables or passages of the source.
System: Human cord blood CD34+ cells
Experiment: cells
Type: cell-based
Settings: for proliferation inhibition: CD34 cells, cell number, FIG. 3, concentration range for which the percentage of dead cells is stated; for IC50: Homo sapiens, cytokine stimulated CD34 cells; for percentage of dead cells to total cells: human
Experimental: Human cord blood CD34+ cells were isolated to high purity (>90%) by immunomagnetic cell sorting, aliquoted and frozen in DMSO containing medium. For cell culture setup, frozen CD34+ cells were thawed and 200 cells were seeded in 200 μl complete medium of a well of a 96 well plate. The basal cell culture medium consisted of IMDM-Medium supplemented with 20% human AB serum and antibiotics (pen/strep). The CD34+ cells were activated by addition of following cytokine cocktail: hu-SCF (100 ng/ml), hu-IL6 (10 ng/ml), hu-GM-CSF (100 U/ml), hu-TPO (25 ng/ml) and hu-EPO (5 U/ml). Cultivation was performed in incubators at 37° C., high humidity and 7% CO2.
Two different experimental setup were used: 1) addition of the inhibitor compound prior supplementation of the medium with cytokines to hit preferentially resting cells, and 2) addition of inhibitor compound 4 days after CD34 activation with cytokines to hit preferentially activated cells.
Dependent on the proliferation rate of the CD34+ cells, harvest and analysis of cell number and cytotoxicity was performed after 9–10 d cell culture. The cell number and cytotoxicity was analysed by FACS technique. The number of cells present in the well was counted by comparison with an internal bead standard. A aliquot of 10000 beads was added to each well harboring 200 μl medium volume FLUOSPHERES® polystyrene, 15 μm; Molecular Probes).
A gate, shown as rectangular region, was set onto the standard beads, a distinct number was counted, analysis was stopped and the corresponding volume of medium containing cells was calculated. […] The viable cells appear again in the middle/right position of the forward scatter (FSC) displaying low/no propidium iodide labeling. The few dead cells appear left or in the upper/left position relative to viable cell population. The FACS measurement took an aliqout count of the beads and calculated the number of cells being present within the well, whereas the cytotoxicity, the number of dead cells, was recorded in parallel during this measurement (addition of propidium iodide; final concentration 1 μg/ml). […] At the highest inhibitory and cytotoxic concentration very few cells were present anymore in the viable cell cluster and the majority of cells had been killed as evident by increased PI staining or fragmentation (panel H).
A typical example of the calculation of the number of CD34 cells and percentage of dead cells in a well is shown in FIG. 3 for two cytotoxic compounds, namely 5-fluorouracil and doxorubicine. […] The increase of the percentage of dead cells obtained from the analysis of the PI positive cell fraction (FIG. 2 panels E to H) is shown as solid line.

IC50 (240 h, 9–10 d culture, FACS count against bead standard, tested 0.1–100 μmol/l, read-out: IC50 value for the cell number analysis) [nM]	percentage of dead cells to total cells	IC50 (240 h, 9–10 d culture, FACS count against bead standard, tested 1–1000 ng/ml, read-out: IC50 value (cell number) from IC50 calculation program) [ng/mL]	IC50 (FIG. 3 legend, tested 1–1000 ng/ml, read-out: IC50 value for the cell number analysis) [ng/mL]	Compound	proliferation inhibition
340	0-25%			O=c1[nH]cc(F)c(=O)[nH]1 [5-fluorouracil]	more than 50%
	~40%	0.67	0.67	COc1cccc2c1C(=O)c1c(O)c3c(c(O)c1C2=O)C[C@@](O)(C(=O)CO)C[C@@H]3O[C@H]1C[C@H](N)[C@H](O)[C@H](C)O1 [doxorubicine]	about 80%

Reference: patent publication US7202081B2, “Simultaneous determination of cell proliferation inhibition activity and toxicity” (Hoffmann-La Roche Inc., priority 2003, dated 2007)
